Here are results for 15 compounds from PubChem BioAssay (NCI).

Where “and” joins values, the source holds several entries; their conditions need not be identical. Equal values may be shown once.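 Assay format: 96-well plates, 48-hour exposure. TGI denotes the concentration required for complete inhibition of growth.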 Bounds are passed on as bounds.

Holding throughout (assay): NCI tumour cell line growth inhibition, 48 h
In experiment [1] the test system is KM12 colon.
Experiment [2] relates to OVCAR-8 ovarian.
Experiment [3] deals with IGROV1 ovarian.
Experiment [4] deals with OVCAR-3 ovarian.
Experiment [5] concerns UO-31 renal.
Experiment [6] relates to SF-268 CNS.
In experiment [7] the test system is HL-60(TB) leukemia.
Experiment [8] relates to SR leukemia.
Experiment [9] relates to NCI/ADR-RES ovarian.

In the case of `CCOC(=O)CCC1(C(=O)OC)CCCC1=O` (stereo unspecified), the TGI in [1], in experiment [2], in [3], in experiment [4], in experiment [5] and in experiment [6] was over 100 µM each time. Besides, the TGI in experiment [7] was over 100 µM.
Turning to `O=c1[nH]c(=O)n(C2CC(O)C(CO)O2)cc1C#Cc1ccc(C(F)(F)F)cc1` (stereo unspecified), the TGI in [1], in experiment [2], in [3], in experiment [4], in experiment [5] and in experiment [8] was over 100 µM each time. In addition, the TGI in [6] and in experiment [7] was over 100 µM in each case.
As for `O=C1CCC2(CCC(=O)NC2=O)C(=O)N1`, the TGI in [1], in [2], in experiment [3], in [4], in [5] and in experiment [8] was over 100 µM each time. Moreover, the TGI in [6] and in experiment [7] was over 100 µM in each case.
Consider `COc1cc(C2SCC(=O)N2NC(=O)c2ccc(NC(C)=O)cc2)cc(OC)c1OC` (stereo unspecified), for which the TGI in experiment [1], in experiment [2], in [3], in experiment [4], in experiment [5] and in experiment [6] was over 100 µM throughout. Besides, the TGI in experiment [7] and in [9] was over 100 µM throughout.
Take `CC1=NN(C(=O)CC(=O)Nc2cccc(Cl)c2)C(=O)C1N=Nc1ccc(S(N)(=O)=O)cc1` (stereo unspecified): the TGI in [1], in experiment [2], in experiment [3], in [4], in experiment [5] and in experiment [8] was over 100 µM each time. Further, the TGI in [6] was over 100 µM.
For the compound `C/C(=N\N(C)C)C(CN(C)C)C(c1ccccc1)c1c(O)c2ccccc2oc1=O` (stereo unspecified), the TGI in experiment [1], in experiment [2], in experiment [3], in experiment [4], in experiment [6] and in [7] was over 100 µM throughout.
On to `CC(=O)O[C@]12CCCCCCC1C1(O)C(O)CCC[C@H]12` (stereo partly specified), for which the TGI in experiment [1], in [2], in experiment [5], in [8] and in [6] was over 100 µM each time.
`Brc1ccc(N2C[N+](c3ccc(Br)cc3)=NC(c3ccccc3)=N2)cc1`: the TGI was 28.1 µM and > 100 µM in experiment [1]; 41.9 µM and > 100 µM in experiment [2]; 29.1 µM and > 100 µM in experiment [3]; 27.6 µM and > 100 µM in experiment [5]; 35.8 µM and > 100 µM in experiment [6]; 35.2 µM and > 100 µM in [7].
Turning to `NC1=NS(=O)(=O)N=C(N)C1=Cc1ccc([N+](=O)[O-])o1`, the TGI in [1] came to 34.5 µM; in experiment [2], 33.3 µM; in [3], 32.1 µM; in experiment [4] it was 32.4 µM; in experiment [5], 31.8 µM; in experiment [8], 29.2 µM. The TGI in experiment [6] is 31.3 µM; in experiment [7] it was over 100 µM.
As to `Cc1cnc(Cl)nc1C(C#N)c1nc2ccccc2n1C` (stereo unspecified), the TGI in experiment [1], in [2], in [3], in experiment [4], in [5] and in experiment [6] was over 100 µM each time. In addition, the TGI in experiment [9] was over 100 µM.
For the compound `c1ccc(C2=NN3CN(N2)c2ccccc2OCCCOc2ccccc23)cc1`, the TGI in [1], in experiment [2], in experiment [3], in experiment [4], in experiment [5] and in experiment [8] was over 100 µM throughout. Besides, the TGI in experiment [6] and in [7] was over 100 µM each time.
As to `Cc1nc2c(n1Cc1ccc(Cl)cc1)C(=O)c1ccccc1C2=O`, the TGI in experiment [1], in experiment [2], in experiment [3], in experiment [4], in experiment [5] and in [8] was over 75 µM in each case. Moreover, the TGI in experiment [6] and in experiment [7] was over 75 µM throughout.
On to `CC(C)(CN1CCCCC1)C(=O)CC(SCCS(=O)(=O)O)c1ccc(Br)cc1` (stereo unspecified), for which the TGI in [1] turned out to be 5.36 µM; in experiment [2], 5.96 µM; in experiment [3] it was 4.56 µM; in experiment [5], 2.99 µM; in experiment [6], 5.48 µM.
For `COc1cc(C(=O)Nc2nnc(S(N)(=O)=O)s2)cc(OC)c1OC`, the TGI in [1], in experiment [2], in experiment [4], in experiment [5], in experiment [8] and in experiment [6] was over 100 µM each time. Besides, the TGI in [7] and in [9] was over 100 µM in each case.
With `Cc1ccc(S(=O)(=O)C(C#N)c2nc3ccccc3nc2-n2cccn2)cc1` (stereo unspecified), the TGI in experiment [1], in experiment [2], in [3], in experiment [4], in experiment [5] and in [6] was over 100 µM each time. This compound also yielded a TGI in [7] of over 100 µM.
